pIC50: −log10 of the molar value.
Columns and labels:
Format in all cases: cell-based
[1] = tested on: TNFα production in human whole blood; experiment: R848 induced TNFα production in human whole blood; settings: 1 uM R848, 20 hours
Experimental: (§1) Compounds of the present invention were also studied in in vitro cytokine production assays. Exemplary protocols follow.
(§2) Human whole blood and hWBC assays: Human whole blood was diluted by combining whole blood with no serum RPMI medium at a ratio of 1:1. 180 ul/well of the diluted whole blood/well was added to a 96 well plate. For WBC assay 100,000 cells/well were seeded in a 96-well plate with a volume of 100 ul/well. To make the compound master plate 9 ul of 30 mM compound solution was added into the wells in the assigned rows, then serial solutions with 4x dilutions were made in DMSO. That is, 9 uL of 100% DMSO were added into each of the rest wells and 3 uL of compound solution was taken from the one-step higher concentration solution and mixed well with the DMSO. An intermediate compound dilution plate was made by mixing 4 uL of the compound solution from the compound master plate with 196 uL of no serum RPMI medium. hWBC or human whole blood was treated for 0.5 hour by adding 20 uL/well of the compound and the control solutions from the intermediate compound plate to the cell plate. 80 uL/well or 20 uL/well of stimulant were then added to the human whole blood or hWBC respectively. […] The supernatants were then collected and cytokine levels were measured with ELISA for TNFα (R&D Systems, #DY210) and IFNα (R&D Systems, #41100-2) per manufacturer's instruction.

[2] = tested on: IL8 production in THP-1 cells; experiment: LPS induced IL8 production assay in THP-1 cells; settings: Homo sapiens, 300 ng/mL LPS, measured at 16 hours
[3] = tested on: TNFα production in human white blood cells (hWBC); experiment: R848 induced TNFα production in hWBC; settings: 1 uM R848, 20 hours
Experimental: as §1, §2

Row | Compound | pIC50 [1] | pIC50 [2] | pIC50 [3]
1 | N#Cc1ccc2ncnc(N[C@H]3CC[C@H](N4CCOCC4)CC3)c2c1 [Compound I-3, 4-(((1r,4r)-4-morpholinocyclohexyl)amino)quinazoline-6-carbonitrile] | 6.00 to 6.60 | ≥ 6.30 | ≥ 6.60
2 | N#Cc1ccc2ncnc(N[C@H]3CC[C@H](N4CCC5(CC4)CC5)CC3)c2c1 [Compound I-7, 4-(((1r,4r)-4-(6-azaspiro[2.5]octan-6-yl)cyclohexyl)amino)-quinazoline-6-carbonitrile] | ≥ 6.60 | ≥ 6.30 | ≥ 6.60
